Assay results taken from ChEMBL document CHEMBL1157931 (Bioorg Med Chem, 2010).
Calls of active or inactive are those of the source. The rule behind the calls is not given here.

Legend:
[1] = molecular target: T1, 5-hydroxytryptamine receptor 1A (Homo sapiens, UniProt P08908); assay: Displacement of [3H]8-OH-DPAT from 5HT1A receptor expressed in HEK293 cells after 2 hrs by liquid scintillation counting; assay type: cell-based
T1 sequence (P08908 whole entry): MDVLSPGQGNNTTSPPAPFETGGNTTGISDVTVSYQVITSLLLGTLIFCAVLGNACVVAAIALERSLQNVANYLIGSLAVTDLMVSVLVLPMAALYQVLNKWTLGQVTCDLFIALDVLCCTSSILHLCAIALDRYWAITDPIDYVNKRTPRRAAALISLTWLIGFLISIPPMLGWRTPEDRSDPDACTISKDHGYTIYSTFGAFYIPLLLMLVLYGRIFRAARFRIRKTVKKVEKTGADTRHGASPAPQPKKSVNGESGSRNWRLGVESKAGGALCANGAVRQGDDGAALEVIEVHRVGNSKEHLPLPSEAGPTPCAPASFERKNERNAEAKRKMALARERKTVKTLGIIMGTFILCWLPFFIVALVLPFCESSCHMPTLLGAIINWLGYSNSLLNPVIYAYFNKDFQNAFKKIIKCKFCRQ

Caco-2 [2] = assay: Permeability in human Caco-2 cells assessed as passive diffusion after 3 hrs by HPLC; assay type: ADME, cell-based; conditions: caco-2, 3 h
Caco-2 [3] = assay: Cytotoxicity against human Caco-2 cells at 50 ug/ml; assay type: cell-based
[4] = molecular target: ATP-dependent translocase ABCB1 (Homo sapiens, UniProt P08183); assay: Inhibition of human MDR1 expressed in MDCK cells assessed as fluorescence activity at 30 uM after 1.5 hrs by rhodamine 123 efflux test; assay type: cell-based
Chain of ATP-dependent translocase ABCB1 (P08183 whole entry): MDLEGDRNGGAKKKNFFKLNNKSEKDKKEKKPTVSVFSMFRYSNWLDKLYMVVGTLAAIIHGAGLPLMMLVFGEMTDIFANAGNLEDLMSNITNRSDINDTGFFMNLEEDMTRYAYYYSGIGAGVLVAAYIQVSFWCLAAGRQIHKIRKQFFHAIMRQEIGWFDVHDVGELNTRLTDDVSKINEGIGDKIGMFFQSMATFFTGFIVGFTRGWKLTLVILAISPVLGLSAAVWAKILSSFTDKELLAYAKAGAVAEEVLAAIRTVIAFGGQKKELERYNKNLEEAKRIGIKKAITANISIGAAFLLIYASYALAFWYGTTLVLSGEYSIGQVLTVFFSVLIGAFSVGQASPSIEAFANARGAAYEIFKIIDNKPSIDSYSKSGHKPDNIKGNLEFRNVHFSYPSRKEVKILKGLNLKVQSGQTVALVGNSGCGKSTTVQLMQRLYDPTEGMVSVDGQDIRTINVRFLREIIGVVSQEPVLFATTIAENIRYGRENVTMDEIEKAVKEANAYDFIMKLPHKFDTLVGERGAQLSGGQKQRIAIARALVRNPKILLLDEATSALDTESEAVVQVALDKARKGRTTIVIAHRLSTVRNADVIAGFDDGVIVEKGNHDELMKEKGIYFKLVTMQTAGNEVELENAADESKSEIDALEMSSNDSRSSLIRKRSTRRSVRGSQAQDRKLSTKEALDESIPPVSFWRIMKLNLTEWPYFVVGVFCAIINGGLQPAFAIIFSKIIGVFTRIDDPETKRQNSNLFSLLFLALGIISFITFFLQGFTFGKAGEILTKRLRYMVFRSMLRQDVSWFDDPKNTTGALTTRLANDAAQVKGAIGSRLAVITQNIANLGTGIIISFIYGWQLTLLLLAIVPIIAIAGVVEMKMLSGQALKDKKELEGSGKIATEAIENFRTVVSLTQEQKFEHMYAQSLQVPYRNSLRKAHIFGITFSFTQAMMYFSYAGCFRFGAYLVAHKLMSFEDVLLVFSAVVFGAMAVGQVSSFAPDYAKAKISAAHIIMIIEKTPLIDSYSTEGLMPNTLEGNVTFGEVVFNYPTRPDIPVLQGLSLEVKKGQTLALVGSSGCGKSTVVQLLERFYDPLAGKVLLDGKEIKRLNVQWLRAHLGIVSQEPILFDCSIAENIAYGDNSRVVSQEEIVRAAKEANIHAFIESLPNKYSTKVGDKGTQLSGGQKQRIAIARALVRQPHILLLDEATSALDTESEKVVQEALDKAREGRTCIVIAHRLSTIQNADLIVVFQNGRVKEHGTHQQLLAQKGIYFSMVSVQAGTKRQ

[5] = molecular target: T2, 5-hydroxytryptamine receptor 1A (Homo sapiens) (UniProt P08908); assay: Antagonist activity at 5HT1A receptor expressed in HEK293 cells assessed as inhibition of 8-OH-DPAT-induced [S35]GTPgammaS binding by scintillation counting; assay type: functional, cell-based
T2 sequence (whole entry): T1 sequence (P08908 whole entry)

[6] = molecular target: T2, 5-hydroxytryptamine receptor 1A (Homo sapiens); assay: Antagonist activity at 5HT1A receptor expressed in HEK293 cells assessed as inhibition of serotonin-induced [S35]GTPgammaS binding by scintillation counting; assay type: functional, cell-based
[7] = molecular target: T2, 5-hydroxytryptamine receptor 1A (Homo sapiens); assay: Agonist activity at 5HT1A receptor expressed in HEK293 cells by [S35]GTPgammaS binding assay relative to 8-OH-DPAT; assay type: functional, cell-based; parameters: concentration or dose not given beside the values
[8] = molecular target: T2, 5-hydroxytryptamine receptor 1A (Homo sapiens); assay: Displacement of [3H]8-OH-DPAT from 5HT1A receptor expressed in HEK293 cells at 25 ug/ml after 2 hrs by liquid scintillation counting; assay type: cell-based
[9] = molecular target: T2, 5-hydroxytryptamine receptor 1A (Homo sapiens); assay: Agonist activity at 5HT1A receptor expressed in HEK293 cells at >20 uM by [S35]GTPgammaS binding assay relative to 8-OH-DPAT; assay type: functional, cell-based

Compound | Ki [1] [µM] | permeability (Caco-2 [2]) [%] | Activity (Caco-2 [3]) | inhibition (INH) [4] | Activity [5] | Activity [6] | Activity [7] [%] | Activity [8] [%] | Activity [9]
CCCCCCCCC[C@H](O)CC(=O)CCc1ccc(O)c(OC)c1 | 3.74 | 10 | Non-toxic | Not Active | inactive | inactive | > 10 | > 50 | 
CCCCCCCCC/C(O)=C/C(=O)/C=C/c1ccc(O)c(OC)c1 | 3.59 |  |  | Not Active | inactive | inactive |  | > 50 | 
CCCCCC(=O)/C=C(O)/C=C/c1ccc(O)c(OC)c1 | 6.53 |  |  | Not Active | inactive | inactive | > 20 | > 50 | inactive
CCCCCCC/C(O)=C/C(=O)/C=C/c1ccc(O)c(OC)c1 | 6.54 |  |  | Not Active | inactive | inactive |  | > 50 | 
CCCCCCCCC/C=C/C(=O)CCc1ccc(O)c(OC)c1 | 5.84 | 10 | Non-toxic | Not Active | inactive | inactive | > 20 | > 50 | inactive
CC[C@]1(O)C[C@@H]2CN(CCc3c([nH]c4ccccc34)[C@@](C(=O)OC)(c3cc4c(cc3OC)N(C)[C@H]3[C@@](O)(C(=O)OC)[C@H](OC(C)=O)[C@]5(CC)C=CCN6CC[C@]43[C@@H]65)C2)C1 [VINBLASTINE] |  |  |  | Active |  |  |  |  | 
CCCCC/C=C/C(=O)CCc1ccc(O)c(OC)c1 [SHOGAOL] | 18 |  |  | Not Active | inactive | inactive |  | > 50 | 
CCCCCCCC(O)CCc1ccc(O)c(OC)c1 (configuration not stated) | 9.53 |  |  |  |  |  | > 10 |  | 
CCCCC[C@H](O)CC(=O)CCc1ccc(O)c(OC)c1 [GINGEROL] | > 100 | 10 | Non-toxic | Not Active | inactive | inactive |  | > 50 | 
NCCc1c[nH]c2ccc(O)cc12 |  |  |  |  |  |  | 100 |  | 
CCCCCCC[C@H](O)CC(=O)CCc1ccc(O)c(OC)c1 | 11.7 | 10 | Non-toxic | Not Active | inactive | inactive |  | > 50 | 
CCCCCCC/C=C/C(=O)CCc1ccc(O)c(OC)c1 | 13 |  |  | Not Active | inactive | inactive |  | > 50 | 
